“Also recorded” adds a separate entry of the source.
B1: PF-389: peptide having multiple activities (peptide)
chain 1: GLQFKEIAEEFHITTTALQQWHKDNGYPIYNKNNRK
chain 2: B1 chain 1
modifications: Peptide with targeting and/or antimicrobial activity

Experiments:
[1] = test system: E. faecalis; experiment: Kill or inhibit growth/proliferation; morphology, biofilm and growth disruption (Tables 5, 6); assay type: cell-based, Enterococcus faecalis; set-up: key: A: Peptide aggregates; B: Less hyphal formation; Clumps; Diffuse clumps and small polyps; F: Diffuse growth; H: Thin; I: Growth inhibition; Microcolony formation; Rippled; Small polyps; Thick; W: Halo formation on top, microlonies on bottom; further: test concentration or dose not given here
[2] = test system: MRSA; experiment: as above; assay type: cell-based, Methicillin-resistant Staphylococcus aureus; set-up: key: A: Peptide aggregates; B: Less hyphal formation; Clumps; Diffuse clumps and small polyps; F: Diffuse growth; H: Thin; I: Growth inhibition; Microcolony formation; Rippled; Small polyps; Thick; W: Halo formation on top, microlonies on bottom; further: test concentration or dose not given here
[3] = test system: S. epidermidis; experiment: as above; assay type: cell-based, Staphylococcus epidermidis; set-up: key: A: Peptide aggregates; B: Less hyphal formation; Clumps; Diffuse clumps and small polyps; F: Diffuse growth; H: Thin; I: Growth inhibition; Microcolony formation; Rippled; Small polyps; Thick; W: Halo formation on top, microlonies on bottom; further: test concentration or dose not given here
[4] = test system: S. pneumoniae; experiment: as above; assay type: cell-based, Streptococcus pneumoniae; set-up: key: A: Peptide aggregates; B: Less hyphal formation; Clumps; Diffuse clumps and small polyps; F: Diffuse growth; H: Thin; I: Growth inhibition; Microcolony formation; Rippled; Small polyps; Thick; W: Halo formation on top, microlonies on bottom; further: test concentration or dose not given here
[5] = test system: C. jejuni; experiment: as above; assay type: cell-based, Campylobacter jejuni; set-up: key: A: Peptide aggregates; B: Less hyphal formation; Clumps; Diffuse clumps and small polyps; F: Diffuse growth; H: Thin; I: Growth inhibition; Microcolony formation; Rippled; Small polyps; Thick; W: Halo formation on top, microlonies on bottom; further: test concentration or dose not given here
[6] = test system: E. coli; experiment: as above; assay type: cell-based, Escherichia coli; set-up: key: A: Peptide aggregates; B: Less hyphal formation; Clumps; Diffuse clumps and small polyps; F: Diffuse growth; H: Thin; I: Growth inhibition; Microcolony formation; Rippled; Small polyps; Thick; W: Halo formation on top, microlonies on bottom; further: test concentration or dose not given here
[7] = test system: microorganisms (e.g., bacteria, yeasts, fungi); experiment: Targeting peptide binding to target microorganisms (Table 3); conditions: preferably 1x PBS; for Target(s): microorganism(s) the targeting peptide binds; for Target(s) (microorganisms bound by the targeting peptide): peptide binding in aqueous buffers varied by peptide solubility
[8] = test system: microorganisms; experiment: Peptides having multiple activities (targeting/binding, antimicrobial, growth or phenotype altering)
Text: In certain embodiments, peptides described herein can have multiple activities. Thus for example, a peptide can have both binding/targeting activity and antimicrobial activity. Such peptides can be used, e.g., in a chimeric construct, for any or all of these properties. Thus, for example, a peptide designated “B” in Table 8 can be used as a targeting peptide. If it is also designated G or M it can also be used for antimicrobial activity.

[9] = peptide binding conducted in aqueous buffers varied by peptide solubility

Row | Molecule | Organism, effect [1] | Organism, effect [2] | Organism, effect [3] | Organism, effect [4] | Organism, effect [5] | Organism, effect [6] | Target(s) ([7]; binding in aqueous buffers depending on peptide solubility) | Activities [8] | Target(s) [7, 9] | Target(s) (microorganisms bound by the targeting peptide) [7]
1 | PF-363: peptide having multiple activities (chain 1 SMLSVTVMCLMHASVAANQAMEKKV; chain 2 SMLSVTVMCLMHASVAANQAMEKKV; Peptide with targeting and/or antimicrobial activity) | E. faecalis (D) | MRSA (H) | S. epidermidis (S) | S. pneumoniae (R) | C. jejuni (D) | E. coli (C) | B. subtilis; also recorded: E. coli; also recorded: P. aeruginosa; also recorded: C. albicans; also recorded: S. pneumoniae; also recorded: E. faecalis | G B |  | 
2 | PF-418: peptide having multiple activities (FFLVHFYIRKRKGKVSIFLNYF; Peptide with targeting and/or antimicrobial activity) | E. faecalis (D) | MRSA (D) | S. epidermidis (M) | S. pneumoniae (D) | C. jejuni (D) | E. coli (C) |  | G B |  | 
3 | PF-469: peptide having multiple activities (chain 1 YKVNYNNIDNHFNTLRH; chain 2 YKVNYNNIDNHFNTLRH; Peptide with targeting and/or antimicrobial activity) | E. faecalis (D) | MRSA (D) | S. epidermidis (D) | S. pneumoniae (D) | C. jejuni (D) | E. coli (C) |  | G B |  | 
4 | PF-576: peptide having multiple activities (chain 1 AYSGELPEPLVRKMSKEQVRSVMGK; chain 2 AYSGELPEPLVRKMSKEQVRSVMGK; Peptide with targeting and/or antimicrobial activity) |  | MRSA (R) | S. epidermidis (A) | S. pneumoniae (C) | C. jejuni (C) | E. coli (A) |  | G B | M. luteus; also recorded: P. mirabilis; also recorded: E. coli; also recorded: P. aeruginosa; also recorded: C. albicans; also recorded: S. pneumoniae | 
5 | PF-585: peptide having multiple activities (DYNHLLNVVQDWVNTN; Peptide with targeting and/or antimicrobial activity) | E. faecalis (A) | MRSA (S) | S. epidermidis (S) | S. pneumoniae (R) | C. jejuni (R) |  |  | G B | S. epidermidis and E. coli and C. albicans and MRSA and S. pneumoniae and C. jeikeium | 
6 | PF-586: peptide having multiple activities (FFNQANYFFKEF; Peptide with targeting and/or antimicrobial activity) | E. faecalis (D) | MRSA (D) | S. epidermidis (C) | S. pneumoniae (D) | C. jejuni (D) | E. coli (C) |  | G B |  | 
7 | PF-592: peptide having multiple activities (IMKNYKYFKLFIVKYALF; Peptide with targeting and/or antimicrobial activity) | E. faecalis (D) | MRSA (D) | S. epidermidis (M) | S. pneumoniae (D) | C. jejuni (S) | E. coli (C) |  | G B |  | 
8 | PF-595: peptide having multiple activities (LQNKIYELLYIKERSKLCS; Peptide with targeting and/or antimicrobial activity) | E. faecalis (D) | MRSA (D) | S. epidermidis (C) | S. pneumoniae (R) | C. jejuni (D) | E. coli (C) |  | G B |  | 
9 | PF-596: peptide having multiple activities (SKMWDKILTILILILELIRELIKL; Peptide with targeting and/or antimicrobial activity) | E. faecalis (D) | MRSA (D) | S. epidermidis (D) | S. pneumoniae (D) | C. jejuni (D) | E. coli (C) |  | G B |  | 
10 | PF-599: peptide having multiple activities (LFEIFKPKH; Peptide with targeting and/or antimicrobial activity) | E. faecalis (A) | MRSA (C) | S. epidermidis (M) | S. pneumoniae (R) | C. jejuni (R) |  |  | G B |  | S. epidermidis and P. mirabilis and E. coli and C. albicans and MRSA and S. pneumoniae and C. jeikeium
11 | PF-607: peptide having multiple activities (YIESDPRKFDYIFGAIRDH; Peptide with targeting and/or antimicrobial activity) | E. faecalis (A) | MRSA (S) | S. epidermidis (M) | S. pneumoniae (R) | C. jejuni (R) |  |  | G B |  | S. epidermidis and P. mirabilis and E. coli and MRSA and S. pneumoniae and C. jeikeium
12 | PF-610: peptide having multiple activities (VFLKLKTSKIDLASIIFYP; Peptide with targeting and/or antimicrobial activity) | E. faecalis (D) | MRSA (D) | S. epidermidis (C) | S. pneumoniae (D) | C. jejuni (D) | E. coli (C) |  | G B |  | 
13 | PF-615: peptide having multiple activities (FLNRFIFYIFTVKTKSALIKNLFLD; Peptide with targeting and/or antimicrobial activity) | E. faecalis (D) | MRSA (D) | S. epidermidis (D) | S. pneumoniae (D) | C. jejuni (D) | E. coli (C) |  | G B |  | 
14 | B1 | E. faecalis (R) | MRSA (C) | S. epidermidis (R) | S. pneumoniae (D) | C. jejuni (R) |  |  | G B | S. epidermidis and C. albicans and MRSA and S. pneumoniae and E. faecalis and C. jeikeium | 
